Test results as given in ChEMBL document CHEMBL4004838, “Design and synthesis of novel phenyl -1, 4-beta-carboline-hybrid molecules as potential anticancer agents” (Eur J Med Chem, 2017).

Key:
Assay type in all cases: functional
[1] = system: M14; assay: Growth inhibition of human M14 cells assessed as cell growth at 0.1 uM incubated for 48 hrs by sulforhodamine B assay relative to control; settings: M14, 48 h, read-out: Activity
[2] = system: MCF7; assay: Growth inhibition of human MCF7 cells assessed as cell growth at 0.01 uM incubated for 48 hrs by sulforhodamine B assay relative to control; settings: MCF7, 48 h, read-out: Activity
[3] = system: NCI-H322M; assay: Growth inhibition of human NCI-H322M cells assessed as cell growth at 1 uM incubated for 48 hrs by sulforhodamine B assay relative to control; settings: read-out: Activity
[4] = system: HOP-62; assay: Growth inhibition of human HOP62 cells assessed as cell growth at 0.01 uM incubated for 48 hrs by sulforhodamine B assay relative to control; settings: HOP-62, 48 h, read-out: Activity
[5] = system: MDA-MB-435; assay: Growth inhibition of human MDA-MB-435 cells incubated for 48 hrs by sulforhodamine B assay; settings: MDA-MB-435, 48 h
[6] = system: IGROV-1; assay: Growth inhibition of human IGROV1 cells assessed as cell growth at 0.01 uM incubated for 48 hrs by sulforhodamine B assay relative to control; settings: IGROV-1, 48 h, read-out: Activity
[7] = system: HOP-62; assay: Growth inhibition of human HOP62 cells assessed as cell growth at 1 uM incubated for 48 hrs by sulforhodamine B assay relative to control; settings: HOP-62, 48 h, read-out: Activity
[8] = system: Hs-578T; assay: Growth inhibition of human Hs 578T cells assessed as cell growth at 0.1 uM incubated for 48 hrs by sulforhodamine B assay relative to control; settings: read-out: Activity
[9] = system: PC-3; assay: Growth inhibition of human PC3 cells assessed as cell growth at 0.01 uM incubated for 48 hrs by sulforhodamine B assay relative to control; settings: PC-3, 48 h, read-out: Activity
[10] = system: UACC-257; assay: Growth inhibition of human UACC257 cells assessed as cell growth at 0.01 uM incubated for 48 hrs by sulforhodamine B assay relative to control; settings: UACC-257, 48 h, read-out: Activity
[11] = system: SNB-75; assay: Growth inhibition of human SNB75 cells assessed as cell growth at 1 uM incubated for 48 hrs by sulforhodamine B assay relative to control; settings: SNB-75, 48 h, read-out: Activity
[12] = system: OVCAR-5; assay: Growth inhibition of human OVCAR5 cells assessed as cell growth at 0.01 uM incubated for 48 hrs by sulforhodamine B assay relative to control; settings: OVCAR-5, 48 h, read-out: Activity
[13] = system: HCC 2998; assay: Growth inhibition of human HCC2998 cells incubated for 48 hrs by sulforhodamine B assay; settings: HCC 2998, 48 h
[14] = system: HL-60(TB); assay: Growth inhibition of human HL-60(TB) cells assessed as cell growth at 1 uM incubated for 48 hrs by sulforhodamine B assay relative to control; settings: HL-60, 48 h, read-out: Activity
[15] = system: CAKI-1; assay: Growth inhibition of human Caki1 cells assessed as cell growth at 0.1 uM incubated for 48 hrs by sulforhodamine B assay relative to control; settings: CAKI-1, 48 h, read-out: Activity
[16] = system: SNB-75; assay: Growth inhibition of human SNB75 cells incubated for 48 hrs by sulforhodamine B assay; settings: SNB-75, 48 h
[17] = system: MOLT-4; assay: Growth inhibition of human MOLT4 cells assessed as cell growth at 0.1 uM incubated for 48 hrs by sulforhodamine B assay relative to control; settings: MOLT-4, 48 h, read-out: Activity
[18] = system: HCT-15; assay: Growth inhibition of human HCT15 cells assessed as cell growth at 0.1 uM incubated for 48 hrs by sulforhodamine B assay relative to control; settings: HCT-15, 48 h, read-out: Activity
[19] = system: UACC-62; assay: Growth inhibition of human UACC62 cells assessed as cell growth at 0.1 uM incubated for 48 hrs by sulforhodamine B assay relative to control; settings: UACC-62, 48 h, read-out: Activity
[20] = system: NCI-H522; assay: Growth inhibition of human NCI-H522 cells assessed as cell growth at 0.01 uM incubated for 48 hrs by sulforhodamine B assay relative to control; settings: NCI-H522, 48 h, read-out: Activity
[21] = system: MDA-MB-468; assay: Growth inhibition of human MDA-MB-468 cells incubated for 48 hrs by sulforhodamine B assay; settings: MDA-MB-468, 48 h
[22] = system: SF-539; assay: Growth inhibition of human SF539 cells assessed as cell growth at 1 uM incubated for 48 hrs by sulforhodamine B assay relative to control; settings: SF-539, 48 h, read-out: Activity
[23] = system: HCC 2998; assay: Growth inhibition of human HCC2998 cells assessed as cell growth at 1 uM incubated for 48 hrs by sulforhodamine B assay relative to control; settings: HCC 2998, 48 h, read-out: Activity
[24] = system: UACC-257; assay: Growth inhibition of human UACC257 cells assessed as cell growth at 1 uM incubated for 48 hrs by sulforhodamine B assay relative to control; settings: UACC-257, 48 h, read-out: Activity
[25] = system: SR; assay: Growth inhibition of human SR cells assessed as cell growth at 0.01 uM incubated for 48 hrs by sulforhodamine B assay relative to control; settings: read-out: Activity
[26] = system: NCI-H322M; assay: Growth inhibition of human NCI-H322M cells incubated for 48 hrs by sulforhodamine B assay
[27] = system: A498; assay: Growth inhibition of human A498 cells assessed as cell growth at 100 uM incubated for 48 hrs by sulforhodamine B assay relative to control; settings: A498, 48 h, read-out: Activity
[28] = system: MDA-MB-231; assay: Growth inhibition of human MDA-MB-231 cells assessed as cell growth at 100 uM incubated for 48 hrs by sulforhodamine B assay relative to control; settings: MDA-MB-231, 48 h, read-out: Activity
[29] = system: DU-145; assay: Growth inhibition of human DU145 cells assessed as cell growth at 100 uM incubated for 48 hrs by sulforhodamine B assay relative to control; settings: DU-145, 48 h, read-out: Activity
[30] = system: MDA-MB-468; assay: Growth inhibition of human MDA-MB-468 cells assessed as cell growth at 0.1 uM incubated for 48 hrs by sulforhodamine B assay relative to control; settings: MDA-MB-468, 48 h, read-out: Activity
[31] = system: SF-295; assay: Growth inhibition of human SF295 cells assessed as cell growth at 0.1 uM incubated for 48 hrs by sulforhodamine B assay relative to control; settings: SF-295, 48 h, read-out: Activity
[32] = read-out: LC50 (the source's name)
[33] = read-out: pLC50 (the source's name) (converted)

c1ccc2c3c([nH]c2c1)C(c1ccc(C2NCCc4c2[nH]c2ccccc42)cc1)NCC3 (racemic)
growth at 0.1 µM [1]: 94% | growth at 0.01 µM [2]: 88% | growth at 1 µM [3]: 65% | growth at 0.01 µM [4]: 84% | CC50 [5, 32]: 3750 nM | GI50 ([5]; read-out: pGI50 (converted)): 363 nM | CC50 [5, 33]: 3720 nM | TGI ([5]; read-out: pTGI (converted)): 1260 nM | growth at 0.01 µM [6]: 99% | growth at 1 µM [7]: 68% | growth at 0.1 µM [8]: 90% | growth at 0.01 µM [9]: 96% | growth at 0.01 µM [10]: 101% | growth at 1 µM [11]: 46% | growth at 0.01 µM [12]: 91% | GI50 ([13]; read-out: pGI50 (converted)): 275 nM | TGI ([13]; read-out: pTGI (converted)): 1290 nM | growth at 1 µM [14]: 57% | growth at 0.1 µM [15]: 93% | CC50 [16, 32]: 4590 nM | GI50 ([16]; read-out: pGI50 (converted)): 692 nM | CC50 [16, 33]: 4570 nM | TGI ([16]; read-out: pTGI (converted)): 2090 nM | growth at 0.1 µM [17]: 101% | growth at 0.1 µM [18]: 95% | growth at 0.1 µM [19]: 99% | growth at 0.01 µM [20]: 104% | CC50 [21, 32]: 5010 nM | GI50 ([21]; read-out: pGI50 (converted)): 363 nM | CC50 [21, 33]: 5010 nM | TGI ([21]; read-out: pTGI (converted)): 1350 nM | growth at 1 µM [22]: 88% | growth at 1 µM [23]: 10% | growth at 1 µM [24]: 103% | growth at 0.01 µM [25]: 108% | GI50 ([26]; read-out: GI50): 1250 nM | CC50 [26, 32]: 5680 nM | TGI ([26]; read-out: TGI): 2660 nM | GI50 ([26]; read-out: pGI50 (converted)): 1260 nM | CC50 [26, 33]: 5620 nM | TGI ([26]; read-out: pTGI (converted)): 2690 nM | growth at 100 µM [27]: -85% | growth at 100 µM [28]: -92% | growth at 100 µM [29]: -94% | growth at 0.1 µM [30]: 100% | growth at 0.1 µM [31]: 92%
